Read-outs that look alike come from different tables or passages of the source.
How the values were obtained:
[1] = system: GABAA receptors; format: cell-based, mice; conditions: for GABAergic miniature SSCs (mSSCs): BMI 100 μM, in presence of DNQX, D-AP5 and TTX, apoE3-KI and apoE4-KI mice
From the text: ApoE3-KI and apoE4-KI mice (2-3 months) were sacrificed 2 weeks after retrovirus-GFP injection and processed for slice preparation as described (Duan et al., 2007; Ge et al., 2006a). Whole-cell voltage-clamp recordings from visually identified GFP^+ neurons (2 weeks after injection) were obtained with an infrared differential interference contrast video microscopy system.
Next the level of GABAergic synaptic innervation, which is critical for neuronal development of newborn hippocampal cells (Ge et al., 2006a; Ge et al., 2006b; Liu et al., 2006; Tozuka et al., 2005), was assessed. GABAergic miniature SSCs (mSSCs) were recorded from GFP^+ neurons (resting membrane potential Vm=−65 mV) 2 weeks after injection of the retrovirus-GFP construct. These studies were conducted in the presence of 6,7-dinitroquinoxaline-2,3-dione (DNQX) (20 μM) and D-(−)-2-amino-5-phosphonovaleric acid (D-AP5) (50 μM) to block glutamate-mediated currents and tetrodotoxin (TTX) (1 μM) to block action potential-mediated GABA release.
In the presence of DNQX and D-AP5, GABA-evoked postsynaptic currents (ePSCs) recorded from GFP^+ neurons were generated by electrical stimulation of GABAergic axons in the molecular layer of the dentate gyrus. This indicates a functional coupling between hilar GABAergic interneurons and newborn neurons in both apoE3-KI and apoE4-KI mice. However, the ePSC peak amplitude was ˜40% lower in apoE4-KI mice (FIGS. 6C, 6D, and 6F). This finding is consistent with a reduction of presynaptic GABAergic inputs onto newborn neurons available for electrical activation in apoE4-KI mice. […] This finding reconfirms the intact GABAA receptor function in newborn neurons of apoE4-KI mice.

[2] = system: NSC proliferation; experiment: Effect of GABAA receptor potentiator or antagonist treatment on NSC proliferation (BrdU+ cells in SGZ); format: in vivo, mice; conditions: 1 day after BrdU injection
Description: (§1) Female mice (3, 6-7, or 12-13 months of age) received two intraperitoneal injections of BrdU (Sigma, 100 mg/kg body weight) 6 h apart. One day, 3 days, and 4 and 10 weeks after the second injection, the brains were perfused with phosphate-buffered saline and collected.
To investigate the effect of GABAA receptor potentiator or antagonist treatment on NSC proliferation, female mice (6-7 months of age) were treated with once-daily intraperitoneal injections of pentobarbital (PB) (Sigma, 50 mg/kg; apoE4-KI mice) or picrotoxin (PTX) (Sigma, 4 mg/kg; apoE3-KI mice). Twenty-four hours after the last treatment, mice received two injections of BrdU (100 mg/kg) 6 h apart and were sacrificed 1 day later. […]
Mouse brains were fixed in 4% paraformaldehyde for 3 days, and coronal sections (40 μm) were cut continuously throughout the entire hippocampus with a vibratome. Single- or double-immunostained cells on both sides of the hippocampus of all stained sections were counted and calculated. Numbers of newborn cells (BrdU^+) and immature neurons (BrdU^+ and Dcx^+) in the SGZ were determined 1 or 3 days after BrdU injection; numbers of surviving newborn cells (BrdU^+) and mature neurons (BrdU^+ and NeuN^+) in the SGZ were determined 4 or 10 weeks after injection. Newborn neurons that had migrated from the SVZ to the OB were quantified 4 weeks after BrdU injection as reported (Galvão et al., 2008). […]

[3] = system: neuronal maturation; experiment: Effect of GABAA receptor potentiator or antagonist treatment on neuronal maturation (SGZ, 4 weeks after BrdU); format: in vivo, mice
Description: as §1
To investigate the effect of GABAA receptor potentiator or antagonist treatment on NSC proliferation, female mice (6-7 months of age) were treated with once-daily intraperitoneal injections of pentobarbital (PB) (Sigma, 50 mg/kg; apoE4-KI mice) or picrotoxin (PTX) (Sigma, 4 mg/kg; apoE3-KI mice). Twenty-four hours after the last treatment, mice received two injections of BrdU (100 mg/kg) 6 h apart and were sacrificed 1 day later. To investigate the effect of GABAA receptor potentiator or antagonist treatment on neuronal maturation, female mice (6-7 months of age) received two injections of BrdU 6 h apart. Twenty-four hours later, apoE3-KI mice received daily injections of PTX for 7 consecutive days, and apoE4-KI mice received daily injections of PB for 28 consecutive days. Mice were sacrificed 4 weeks after the second BrdU injection.
Mouse brains were fixed in 4% paraformaldehyde for 3 days, and coronal sections (40 μm) were cut continuously throughout the entire hippocampus with a vibratome. Every eighth section was immunostained with various primary and secondary antibodies and examined with a laser-scanning confocal system.
Immunostaining was carried out with anti-BrdU (mouse monoclonal, Chemicon, 1:400; or rat monoclonal, Abcam, 1:400) and/or with antibodies against other cellular markers, including mouse anti-NeuN (Chemicon, 1:400), mouse anti-nestin (Chemicon, 1:50), goat anti-Dcx (Santa Cruz Biotechnology, 1:40), goat anti-Sox2 (Santa Cruz Biotechnology, 1:350), rabbit anti-GFAP (Invitrogen, 1:400), mouse anti-β-III-tubulin (Promega, 1:800), mouse anti-S100β (Abcam, 1:400), and rat anti-Noggin (R&D Systems, 1:200). Corresponding secondary antibodies (Texas Red and fluorescein, 1:250, Vector Laboratories) were used. For Ki67, somatostatin, and GAD67 immunostaining, rabbit anti-Ki67 (Bethyl Labs, 1:1000), rat anti-somatostatin (Chemicon, 1:100), and mouse anti-GAD67 (Chemicon, 1:1500) were used with biotinylated goat anti-rabbit IgG (1:250), rabbit anti-rat IgG (1:250), and rabbit anti-mouse IgG (1:250) as secondary antibodies and diaminobenzadine as a chromagen (Dako).
Mouse brains were fixed in 4% paraformaldehyde for 3 days, and coronal sections (40 μm) were cut continuously throughout the entire hippocampus with a vibratome. Single- or double-immunostained cells on both sides of the hippocampus of all stained sections were counted and calculated. Numbers of newborn cells (BrdU^+) and immature neurons (BrdU^+ and Dcx^+) in the SGZ were determined 1 or 3 days after BrdU injection; numbers of surviving newborn cells (BrdU^+) and mature neurons (BrdU^+ and NeuN^+) in the SGZ were determined 4 or 10 weeks after injection. Newborn neurons that had migrated from the SVZ to the OB were quantified 4 weeks after BrdU injection as reported (Galvão et al., 2008). The number of GABAergic interneurons in the hilus of the dentate gyrus was determined by counting GAD67- and somatostatin-positive cells.

[4] = system: dendritic development of newborn neurons; experiment: Dendritic development of retrovirus-GFP labelled newborn hippocampal neurons; format: in vivo, mice
[5] = system: NSCs from apoE-KO mice; experiment: NSC culture and neural differentiation in vitro; format: cell-based; conditions: neuronal differentiation conditions, Noggin 500 ng/ml
Description: NSCs were isolated from brains of apoE3-KI, apoE4-KI, wildtype, and apoE-KO mice at postnatal day 1 (P1) using a modified neurosphere method (Brewer and Torricelli, 2007; Ray and Gage, 2006). The expression of apoE and Noggin in NSCs with different apoE genotypes was assessed by anti-apoE and anti-Noggin (R&D Systems) western blots of cell lysates. Neural differentiation of the established NSCs with different apoE genotypes was induced in vitro as reported (Song et al., 2002). In some experiments, recombinant mouse Noggin (R&D Systems) was added at 500 ng/ml into the medium during neural differentiation. Neuronal and astrocytic differentiation of NSCs at 7 days was determined and quantified.

[6] = apoE4-KI mice, daily PB for 4 weeks
[7] = apoE3-KI mice, daily PTX for 7 days, 4 weeks after BrdU injection

With C[N+]1(C)CCc2cc3c(cc2[C@H]1[C@@H]1OC(=O)c2c1ccc1c2OCO1)OCO3.[I-] [Bicuculline methoiodide] the “ePSCs (evoked postsynaptic currents)” value ([1]; BMI 100 μM bath application, in presence of DNQX and D-AP5) was “Currents were blocked”, the “GABAergic miniature SSCs (mSSCs)” value [1] was “abolished the mSSCs” and the “GABAergic miniature SSCs (mSSCs)” value ([1]; listed as BMI) was “The mSSCs were blocked”.

For NCCCC(=O)O [GABA, gamma-aminobutyric acid], the “current amplitudes evoked by focal application” value ([1]; exogenous GABA 500 μM, GFP+ neurons from apoE3-KI vs apoE4-KI mice) was “evoked similar current amplitudes in GFP^+ neurons from apoE3-KI and apoE4-KI mice”.

With CCCC(C)C1(CC)C(=O)NC(=O)NC1=O (stereo not drawn) [pentobarbital] the “number of newborn cells (BrdU+) in the SGZ” value ([2]; apoE4-KI mice, PB 50 mg/kg i.p. once daily) was “decreased the number of newborn cells to levels similar to those of wildtype and untreated apoE3-KI mice”, the “number of immature neurons” value [3, 6] was “decreased the number of immature neurons” and the “number of mature neurons” value [3, 6] was “increased the number of mature neurons”. For the same molecule, the “length of dendritic branches of newborn neurons” value ([4]; apoE3-KI mice treated with PB) was “did not alter the length or number of dendritic branches”, the “number of dendritic branches of newborn neurons” value ([4]; apoE3-KI mice treated with PB) was “did not alter the length or number of dendritic branches” and the “dendritic branch number of newborn neurons” value ([4]; apoE4-KI mice treated with PB) was “increases in both dendritic length and branch number to levels similar to those in wildtype and apoE3-KI mice”. The “dendritic length of newborn neurons” value ([4]; apoE4-KI mice treated with PB) was “increases in both dendritic length and branch number to levels similar to those in wildtype and apoE3-KI mice” and the “number of dendritic branches of newborn neurons” value ([4]; wildtype mice treated with PB) was “trend toward significant increase (p=0.053)”.

picrotoxin was tested, and the “number of newborn cells (BrdU+) in the SGZ” value ([2]; apoE3-KI mice, PTX 4 mg/kg i.p. once daily for 3 days) was “increased the number of newborn cells 1 day after BrdU injection to a level similar to that in untreated apoE4-KI mice”, the “number of immature neurons” value [3, 7] was “the number of immature neurons was increased” and the “number of mature neurons” value [3, 7] was “the number of mature neurons was decreased”. The “survival of newborn cells” value [3, 7] was “the survival of newborn cells was unaltered”.

B1: recombinant mouse Noggin: recombinant mouse Noggin (R&D Systems), bone-morphogenetic protein (BMP) inhibitor (protein, UniProt P97466 28-232, looked up)
Noggin: QHYLHIRPAPSDNLPLVDLIEHPDPIFDPKEKDLNETLLRSLLGGHYDPGFMATSPPEDRPGGGGGPAGGAEDLAELDQLLRQRPSGAMPSEIKGLEFSEGLAQGKKQRLSKKLRRKLQMWLWSQTFCPVLYAWNDLGSRFWPRYVKVGSCFSKRSCSVPEGMVCKPSKSVHLTVLRWRCQRRGGQRCGWIPIQYPIISECKCSC
B1 was tested, and the astrogenesis [5] was “inhibited astrogenesis” and the neurogenesis [5] was “stimulated neurogenesis to levels similar to those of NSCs from wildtype mice”.

Source: patent US20110135611A1 (priority 2009, published 2011)
